Test results published in patent publication US20240166645A1, “PYRIDOPYRIMIDINONE DERIVATIVE, PREPARATION METHOD THEREFOR, AND USE THEREOF” (Wuhan Humanwell Innovative Drug Research and Development …, priority 2021, published 2024).

Columns and labels:
[1] = molecular target: KRAS G12C-SOS1 (Homo sapiens (Human), UniProt Q07889); test: Inhibition test of compounds on KRAS G12C::SOS1 binding; conditions: GST-KRAS G12C, His-SOS1
Procedure: The compound to be tested was prepared into a 10 mM stock solution with DMSO, and the compound was serially diluted using 1× test buffer. 0.1 μL of the compound solution with different concentrations was transferred to a 384-well plate. […] 5 μL of His-SOS1 was added to the 384-well plate, centrifuged at 1000 rpm for 1 min, and incubated at room temperature for 15 min.
After incubation, 10 μL of a mixed solution of anti-6his-Tb monoclonal antibody (Cisbio, Cat. No. 61HI2TLA) and anti-GST-XL665 monoclonal antibody (Cisbio, Cat. No. 61GSTXLA) was added to the test well, centrifuged at 1000 rpm for 1 min, and incubated at room temperature for 1 h.
After incubation, the fluorescence signal ratios at 665 nm and 615 nm were read on a multifunctional microplate reader (Perkin Elmer, Envision 2104), and the IC50 values were calculated using Graphpad 5 software.

[2] = tested on: ERK phosphorylation level in DLD-1 cells; test: Inhibition of ERK phosphorylation level in DLD-1 cells (intracellular western blot); format: cell-based; conditions: Homo sapiens
Procedure: Intracellular western blot quantitative analysis was used to detect the inhibitory level of compounds on ERK phosphorylation in DLD-1 cells.
DLD-1 cells (ATCC, CCL-221) were seeded in a T75 culture flask at 2.5×10^6 cells/flask and cultured in a RPMI 1640 medium containing 10% FBS for 2 days. On day 3, the cells were seeded on a 384-well plate, and cultured overnight at 37° C., 5% CO2. After overnight culture, the plate was added with serially diluted compounds (the final content of DMSO was 0.5%), the negative group was added with DMSO, and incubated in a 37° C., 5% CO2 incubator.
The cells were fixed, washed once with PBS, treated to disrupt membranes, and blocked at room temperature for 1 h. The blocking solution was removed. The plate was added with primary antibody (CST, Cat. No. #4370S), and incubated overnight at 4° C. The plate was washed 3 times with PBST (PBS solution added with 0.05% Tween-20) and soaked for 2 min each time. The plate was added with secondary antibody (LI-COR, Cat. No. 926-32211) and incubated at room temperature in the dark. The plate was washed 3 times with PBST and soaked for 2 min each time. The plate was centrifuged at 1000 rpm for 1 min, scanned on a two-color infrared laser imaging system (Odyssey® CLX) to read the signal.
Relative signal=800-channel signal values/700-channel signal values.
Relative expression level of ERK phosphorylation=(test compound−control compound I)/(DMSO group−control compound I)
IC50 values were calculated using Graphpad 5 software.

[3] = Pharmacokinetic test in mice; format: in vivo; conditions: mouse, plasma; male ICR mice, oral gavage, 10 mg/kg
Procedure: Male ICR mice (20 to 25 g) were used and fasted overnight. Three mice were taken and orally administered by gavage (10 mg/kg). Blood was collected before the administration, and at 15 min, 30 min, 1 h, 2 h, 4 h, 8 h and 24 h after the administration. 6,800 g of the blood samples were centrifuged at 2 to 8° C. for 6 min, and plasma was collected and stored at −80° C. The plasma at each time point was taken and added with an acetonitrile solution containing internal standard in 3 to 5 times the amount, vortexed and mixed for 1 min, and centrifuged at 13,000 rpm/min at 4° C. for 10 min. The supernatant was collected, added with water in 3 times the amount, and mixed. An appropriate amount of the mixture was taken for LC-MS/MS analysis. The main pharmacokinetic parameters were analyzed using WinNonlin 7.0 software with non-compartmental model.

Chain of KRAS G12C-SOS1 (Q07889 whole entry, stated change not applied): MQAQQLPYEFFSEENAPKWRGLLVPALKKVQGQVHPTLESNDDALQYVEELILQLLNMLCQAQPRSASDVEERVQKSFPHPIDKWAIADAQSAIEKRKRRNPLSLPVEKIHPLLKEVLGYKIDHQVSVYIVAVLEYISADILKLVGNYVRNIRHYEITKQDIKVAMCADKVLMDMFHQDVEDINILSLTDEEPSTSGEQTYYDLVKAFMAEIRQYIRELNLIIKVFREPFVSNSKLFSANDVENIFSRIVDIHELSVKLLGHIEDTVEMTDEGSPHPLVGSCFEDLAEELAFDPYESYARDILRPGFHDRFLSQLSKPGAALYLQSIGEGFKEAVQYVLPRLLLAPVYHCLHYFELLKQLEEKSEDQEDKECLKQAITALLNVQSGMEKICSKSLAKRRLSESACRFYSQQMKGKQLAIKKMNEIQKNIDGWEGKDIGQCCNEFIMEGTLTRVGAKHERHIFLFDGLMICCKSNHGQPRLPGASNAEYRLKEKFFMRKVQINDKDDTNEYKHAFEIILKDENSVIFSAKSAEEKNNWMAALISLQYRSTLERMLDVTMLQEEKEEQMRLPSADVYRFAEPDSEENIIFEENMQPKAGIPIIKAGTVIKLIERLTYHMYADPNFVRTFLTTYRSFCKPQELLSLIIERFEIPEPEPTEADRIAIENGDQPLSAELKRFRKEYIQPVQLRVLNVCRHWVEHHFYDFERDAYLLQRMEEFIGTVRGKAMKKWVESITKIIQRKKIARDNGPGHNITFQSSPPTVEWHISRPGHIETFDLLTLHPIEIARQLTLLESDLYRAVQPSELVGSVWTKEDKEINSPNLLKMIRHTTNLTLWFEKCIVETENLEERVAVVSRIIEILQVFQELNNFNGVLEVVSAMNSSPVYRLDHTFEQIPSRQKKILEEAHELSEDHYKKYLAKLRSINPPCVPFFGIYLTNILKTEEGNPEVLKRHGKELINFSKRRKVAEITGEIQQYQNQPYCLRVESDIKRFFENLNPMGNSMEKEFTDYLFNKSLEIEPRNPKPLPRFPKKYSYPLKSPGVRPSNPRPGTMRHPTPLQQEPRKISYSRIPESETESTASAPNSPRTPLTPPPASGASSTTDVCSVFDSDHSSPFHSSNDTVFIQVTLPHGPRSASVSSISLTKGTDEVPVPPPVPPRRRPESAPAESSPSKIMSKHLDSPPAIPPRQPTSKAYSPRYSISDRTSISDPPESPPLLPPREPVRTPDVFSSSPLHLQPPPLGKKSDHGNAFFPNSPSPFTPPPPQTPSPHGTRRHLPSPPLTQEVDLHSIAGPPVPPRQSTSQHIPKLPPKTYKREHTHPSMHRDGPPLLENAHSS

SMILES	IC50 [1] [nM]	IC50 [2] [nM]	AUC(0-t) [3] [ng·h/mL]	Cmax [3] [ng/mL]	Tmax [3] [min]	half-life [3] [min]
Cc1nc(N[C@H](C)c2cccc(S(=O)(=O)C(F)F)c2C)c2cn(C3(CF)CC3)c(=O)cc2n1 [Compound I-1, (R)-4-((1-(3-((difluoromethyl)sulfonyl)-2-methylphenyl)ethyl)amino)-6-(1-(fluoromethyl)cyclopropyl)-2-methylpyrido[4,3-d]pyrimidin-7(6H)-one]	6.87	102				
Cc1nc(N[C@H](C)c2cccc(S(=O)(=O)C(F)(F)F)c2F)c2cn(C3(CF)CC3)c(=O)cc2n1 [Compound I-2, (R)-4-((1-(2-fluoro-3-((trifluoromethyl)sulfonyl)phenyl)ethyl)amino)-6-(1-(fluoromethyl)cyclopropyl)-2-methylpyrido[4,3-d]pyrimidin-7(6H)-one]	7.73	58	517	256	30	59.4
